Experimental data published in PubChem BioAssay AID2060887 (Molecular Pharmacology Branch, DTP, NCI, 2025).

Test system: 782815-120-R-J1-PDC complex spheroid viability
Assay: Anticancer human tumor 782815-120-R-J1-PDC patient-derived colon adenocarcinoma cell line growth inhibition [RAS]
Settings: for IC50: curve of first compound; for viability, T/C: stronger effect = lower value; active = viability on the fitted dose curve at most 10% of control; inactive = the rest
Procedure, shortened: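 Multi-cell-type spheroids: tumor cells plus HUVEC endothelial cells and mesenchymal stem cells. RAS-pathway inhibitors were combined with targeted agents, each dosed in half-log steps down from clinical Cmax, or from 10 microM when Cmax was unknown.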

[1] = second compound 0.000949 µM, first compound 0.0316 µM
[2] = second compound 0.000949 µM, first compound 0.1 µM
[3] = second compound 0.000949 µM, first compound 0.316 µM
[4] = second compound 0.000949 µM, first compound 1 µM
[5] = second compound 0.000949 µM, first compound 3.16 µM
[6] = second compound 0.000949 µM, first compound 10 µM
[7] = second compound 0.003 µM, first compound 0.0316 µM
[8] = second compound 0.003 µM, first compound 0.1 µM
[9] = second compound 0.003 µM, first compound 0.316 µM
[10] = second compound 0.003 µM, first compound 1 µM
[11] = second compound 0.003 µM, first compound 3.16 µM
[12] = second compound 0.003 µM, first compound 10 µM
[13] = second compound 0.00949 µM, first compound 0.0316 µM
[14] = second compound 0.00949 µM, first compound 0.1 µM
[15] = second compound 0.00949 µM, first compound 0.316 µM
[16] = second compound 0.00949 µM, first compound 1 µM
[17] = second compound 0.00949 µM, first compound 3.16 µM
[18] = second compound 0.00949 µM, first compound 10 µM
[19] = second compound 0.03 µM, first compound 0.0316 µM
[20] = second compound 0.03 µM, first compound 0.1 µM
[21] = second compound 0.03 µM, first compound 0.316 µM
[22] = second compound 0.03 µM, first compound 1 µM
[23] = second compound 0.03 µM, first compound 3.16 µM
[24] = second compound 0.03 µM, first compound 10 µM
[25] = second compound 0.0949 µM, first compound 0.0316 µM
[26] = second compound 0.0949 µM, first compound 0.1 µM
[27] = second compound 0.0949 µM, first compound 0.316 µM
[28] = second compound 0.0949 µM, first compound 1 µM
[29] = second compound 0.0949 µM, first compound 3.16 µM
[30] = second compound 0.0949 µM, first compound 10 µM
[31] = second compound 0.3 µM, first compound 0.0316 µM
[32] = second compound 0.3 µM, first compound 0.1 µM
[33] = second compound 0.3 µM, first compound 0.316 µM
[34] = second compound 0.3 µM, first compound 1 µM
[35] = second compound 0.3 µM, first compound 3.16 µM
[36] = second compound 0.3 µM, first compound 10 µM
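Also: spheroids exposed to compounds for 7 days before reading.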
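For viability, T/C in this document: 100% = DMSO vehicle control viability.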

CC1(O)CCCC1n1c(=O)c(C(F)F)cc2cnc(NC3CCN(S(C)(=O)=O)CC3)nc21 (centres undefined) + CCn1c(-c2cccnc2C(C)OC)c2c3cc(ccc31)N1CCOC(CC(NC(=O)C(C(C)C)N(C)C(=O)C3(F)CCN(C(=O)C#CC(C)(C)N(C)C)CC3)C(=O)N3CCCC(N3)C(=O)OCC(C)(C)C2)C1
4.04 µM: IC50 (second compound 0.00949 µM)
4.5 µM: IC50 (second compound 0.000949 µM) | IC50 (second compound 0.03 µM)
4.63 µM: IC50 (second compound 0.003 µM)
inactive: viability, T/C [1] 61.7% | viability, T/C [2] 57.9% | viability, T/C [3] 65.8% | viability, T/C [4] 63% | viability, T/C [5] 61.5% | viability, T/C [6] 23.8% | viability, T/C [7] 63.4% | viability, T/C [8] 64.5% | viability, T/C [9] 63.5% | viability, T/C [10] 54.9% | viability, T/C [11] 65.2% | viability, T/C [12] 25.2% | viability, T/C [13] 57.6% | viability, T/C [14] 55.1% | viability, T/C [15] 64.3% | viability, T/C [16] 70.3% | viability, T/C [17] 55% | viability, T/C [18] 24% | viability, T/C [19] 69.3% | viability, T/C [20] 53.7% | viability, T/C [21] 69.1% | viability, T/C [22] 61.9% | viability, T/C [23] 61.3% | viability, T/C [24] 24.8% | viability, T/C [25] 67% | viability, T/C [26] 59.5% | viability, T/C [27] 70.3% | viability, T/C [28] 65.2% | viability, T/C [29] 71.1% | viability, T/C [30] 22% | viability, T/C [31] 66.7% | viability, T/C [32] 50.9% | viability, T/C [33] 58% | viability, T/C [34] 69.2% | viability, T/C [35] 61.5% | viability, T/C [36] 18.7%
4.86 µM: IC50 (second compound 0.0949 µM)
4.29 µM: IC50 (second compound 0.3 µM)

CCC(CC)c1cc(NC2CCC(N)C2)n2nccc2n1 (centres undefined) + CCn1c(-c2cccnc2C(C)OC)c2c3cc(ccc31)N1CCOC(CC(NC(=O)C(C(C)C)N(C)C(=O)C3(F)CCN(C(=O)C#CC(C)(C)N(C)C)CC3)C(=O)N3CCCC(N3)C(=O)OCC(C)(C)C2)C1
2.74 µM: IC50 (second compound 0.03 µM)
inactive: viability, T/C [1] 98.6% | viability, T/C [2] 90.5% | viability, T/C [3] 103% | viability, T/C [4] 100% | viability, T/C [5] 46.6% | viability, T/C [7] 97.9% | viability, T/C [8] 92.7% | viability, T/C [9] 97.4% | viability, T/C [10] 96.8% | viability, T/C [11] 48.9% | viability, T/C [13] 101% | viability, T/C [14] 102% | viability, T/C [15] 95.9% | viability, T/C [16] 102% | viability, T/C [17] 45.1% | viability, T/C [19] 94.2% | viability, T/C [20] 96.5% | viability, T/C [21] 103% | viability, T/C [22] 108% | viability, T/C [23] 42.8% | viability, T/C [25] 97.6% | viability, T/C [26] 99% | viability, T/C [27] 97.4% | viability, T/C [28] 106% | viability, T/C [29] 45% | viability, T/C [31] 91.9% | viability, T/C [32] 92.6% | viability, T/C [33] 94.3% | viability, T/C [34] 101% | viability, T/C [35] 34.9%
active: viability, T/C [6] 2.15% | viability, T/C [12] 1.8% | viability, T/C [18] 2.14% | viability, T/C [24] 2.25% | viability, T/C [30] 2.54% | viability, T/C [36] 3.21%
2.85 µM: IC50 (second compound 0.0949 µM)
2.86 µM: IC50 (second compound 0.00949 µM)
2.93 µM: IC50 (second compound 0.000949 µM)
2.36 µM: IC50 (second compound 0.3 µM)
3.08 µM: IC50 (second compound 0.003 µM)
